Test results taken from PMC8342319, “Predicting blood-to-plasma concentration ratios of drugs from chemical structures and volumes of distribution in humans” (Molecular Diversity, 2021).
Like-named read-outs stand apart in the source and are kept apart here.

Tests used:
[1] = cited from earlier work
plasma protein = details: cited from earlier work; for fp_Human (free fraction in plasma): human
[2] = human
[3] = human, cited from earlier work
[4] = human, cited from earlier work; for Rb_Human: blood-to-plasma concentration ratio, median if multiple values reported, Reference of Table S1
[5] = human, intravenous, median if multiple values were reported, ref numbers in Table S1
[6] = collected value, median if multiple values were reported, ref: Table S1
[7] = intravenous, median if multiple values were reported, ref numbers in Table S1
[8] = median if multiple values were reported, ref numbers in Table S1
[9] = free fraction in human plasma, median if multiple values reported, Reference of Table S1
[10] = intravenous, median if multiple values reported, Reference of Table S1

Structure (SMILES) | in vivo CL_(L/hr/kg)_Human [1, 5] [L/h/kg] | fp_Human (free fraction in plasma) (plasma protein; [6]) | in vivo MRT_(hr)_Human [2] [h] | in vivo Vd_(L/kg)_Human [3, 7] [L/kg] | Rb_Human (blood-to-plasma concentration ratio) [4, 8] | in vivo CL_(L/hr/kg)_Human ([1]; in vivo, iv) [L/h/kg] | fp_Human (free fraction in plasma) (plasma protein; plasma) | in vivo Vd_(L/kg)_Human ([3]; in vivo, iv) [L/kg] | Rb_Human (blood-to-plasma concentration ratio) ([4]; plasma) | fp_Human (plasma protein) | fp_Human (plasma protein; [9]) | in vivo Vd_(L/kg)_Human [3, 10] [L/kg] | Rb_Human [4]
CC(C)NCC(O)COc1ccc(CCOCC2CC2)cc1 (stereo not drawn) [Betaxolol] | 0.204 | 0.495 | 23.529 | 4.800 | 0.79 | – | – | – | – | – | – | – | –
CC[C@H](C)C[C@H](C)CCCCCCCCC(=O)N[C@H]1C[C@@H](O)[C@@H](NCCN)NC(=O)[C@@H]2[C@@H](O)CCN2C(=O)[C@H]([C@H](O)CCN)NC(=O)[C@H]([C@H](O)[C@@H](O)c2ccc(O)cc2)NC(=O)[C@@H]2C[C@@H](O)CN2C(=O)[C@H]([C@@H](C)O)NC1=O [Caspofungin] | – | – | 15.476 | – | – | 0.008 | 0.035 | 0.130 | 0.74 | – | – | – | –
CO[C@@]1(NC(=O)C2SC(=C(C(N)=O)C(=O)O)S2)C(=O)N2C(C(=O)O)=C(CSc3nnnn3C)CS[C@@H]21 (stereo partly drawn) [Cefotetan] | 0.025 | 0.150 | 5.159 | 0.130 | 0.65 | – | – | – | – | – | – | – | –
CC(C)(O/N=C(\C(=O)N[C@@H]1C(=O)N2C(C(=O)[O-])=C(C[n+]3ccccc3)CS[C@H]12)c1csc(N)n1)C(=O)O [Ceftazidime] | 0.144 | 0.790 | 2.153 | 0.310 | 0.72 | – | – | – | – | – | – | – | –
CN(C)CCC(c1ccc(Cl)cc1)c1ccccn1 (stereo not drawn) [Chlorpheniramine] | 0.150 | 0.280 | 22.000 | 3.300 | 1.34 | – | – | – | – | – | – | – | –
Clc1cccc(Cl)c1N=C1NCCN1 [Clonidine] | 0.213 | 0.560 | 13.750 | 3.300 | 1.04 | – | – | – | – | – | – | – | –
OCCN1CCN(CCCN2c3ccccc3Sc3ccc(C(F)(F)F)cc32)CC1 [Fluphenazine] | 0.591 | 0.040 | 4.983 | 2.900 | 0.69 | – | – | – | – | – | – | – | –
C[C@@H]1C[C@H]2[C@@H]3C[C@H](F)C4=CC(=O)C=C[C@]4(C)[C@@]3(F)[C@@H](O)C[C@]2(C)[C@@]1(O)C(=O)SCF [Fluticasone] | 1.020 | 0.100 | 3.529 | 3.600 | 0.60 | – | – | – | – | – | – | – | –
CCCCC1=NC2(CCCC2)C(=O)N1Cc1ccc(-c2ccccc2-c2nnn[nH]2)cc1 [Irbesartan] | 0.133 | 0.100 | 6.812 | 0.940 | 0.60 | – | – | – | – | – | – | – | –
CNCCCC12CCC(c3ccccc31)c1ccccc12 [Maprotiline] | 0.840 | 0.115 | 53.571 | 45.000 | 1.70 | – | – | – | – | – | – | – | –
N[C@@H](Cc1ccc(N(CCCl)CCCl)cc1)C(=O)O [Melphalan] | 0.366 | 0.120 | 1.143 | – | – | – | – | 0.480 | 0.96 | – | – | – | –
CCOC(=O)C1(c2ccccc2)CCN(C)CC1 [Meperidine] | 1.020 | 0.380 | 11.395 | 3.350 | 1.01 | – | – | – | – | – | – | – | –
Cc1cccc(C)c1OCC(C)N (stereo not drawn) [Mexiletine] | 0.498 | 0.350 | 11.847 | 5.900 | 1.12 | – | – | – | – | – | – | – | –
Cc1ncc2n1-c1ccc(Cl)cc1C(c1ccccc1F)=NC2 [Midazolam] | 0.318 | 0.030 | 3.459 | – | 0.68 | – | – | 1.100 | – | 0.030 | – | – | –
CC(C)=CCN1CCC2(C)c3cc(O)ccc3CC1C2C (stereo not drawn) [Pentazocine] | 1.380 | 0.380 | 2.464 | – | 1.07 | – | – | 3.400 | – | – | – | – | –
CCOc1ccc(NC(C)=O)cc1 [Phenacetin] | – | – | 1.111 | – | – | – | – | – | – | – | 0.470 | 1.400 | 1.01
CC(C)NCC(O)COc1cccc2[nH]ccc12 (stereo not drawn) [Pindolol] | – | – | 2.597 | – | – | – | – | – | – | – | 0.580 | 1.200 | 0.69
